# Reference: patent publication US8551999B2, “Heterocyclic compound and pharmaceutical composition thereof” (Otsuka Pharmaceutical Co., Ltd., priority 2007, dated 2013)
row,melting point,SMILES
1,204.9 to 205.7 °C,Cc1cc(C(F)(F)F)ccc1C(=O)Nc1ccc(Oc2ccc3cc(C(=O)N4CCN(Cc5ccc(OC(F)F)cc5)CC4)n(C)c3c2)nc1.Cl
2,215.3 to 216.6 °C,"Br.CN(C(=O)c1ccc(C(F)(F)F)cc1)c1ccc(Oc2ccc3cc(C(=O)N4CCN(Cc5ccc(OCCF)cc5)CC4)n(C)c3c2)nc1 [Example 438, N-[6-(2-{4-[4-(2-Fluoroethoxy)benzyl]piperazine-1-carbonyl}-1-methyl-1H-indol-6-yloxy)pyridin-3-yl]-N-methyl-4-trifluoromethyl-benzamide hydrobromide]"
3,226.9 to 227.2 °C,CCN(c1ccc(Oc2ccc3cc(C(=O)N4CCN(Cc5ccc(OCC(F)(F)F)cc5)CC4)n(C)c3c2)nc1)S(=O)(=O)c1ccc(Cl)c(Cl)c1.Cl
4,196 to 198 °C,"Br.CCOc1ccc(CN2CCN(C(=O)c3cc4cc(Oc5ccc(NC(=O)c6ccc(C(F)(F)F)cc6)cn5)ccc4n3C)CC2)cc1OCC [Example 340, N-(6-{2-[4-(3,4-Diethoxybenzyl)piperazine-1-carbonyl]-1-methyl-1H-indol-5-yloxy}pyridin-3-yl)-4-trifluoromethylbenzamide hydrobromide]"
5,254 to 260 °C (dec.),"Br.CN(C(=O)c1ccc(C(F)(F)F)cc1)c1ccc(Oc2ccc3c(c2)cc(C(=O)N2CCN(Cc4ccc(C(F)(F)F)cc4)CC2)n3C)nc1 [Example 553, N-Methyl-N-(6-{1-methyl-2-[4-(4-trifluoromethylbenzyl)piperazine-1-carbonyl]-1H-indol-5-yloxy}pyridin-3-yl)-4-trifluoromethyl-benzamide hydrobromide]"
6,226 to 227 °C,"Br.COc1ccc(CN2CCN(C(=O)c3cc4cc(Oc5ccc(NC(=O)c6ccc(OC(F)(F)F)cc6)cn5)ccc4n3C)CC2)cc1 [Example 17, N-(6-{2-[4-(4-Methoxybenzyl)piperazine-1-carbonyl]-1-methyl-1H-indol-5-yloxy}pyridin-3-yl)-4-trifluoromethoxybenzamide hydrobromide]"
7,134 to 135 °C,"COc1ccc(CN2CCN(C(=O)c3cc4cccc(Oc5ccc(N(C)C(=O)c6ccc(C(F)(F)F)cc6)cn5)c4n3C)CC2)cc1.O=C(O)C(=O)O [Example 323, N-(6-{2-[4-(4-Methoxybenzyl)piperazine-1-carbonyl]-1-methyl-1H-indol-7-yloxy}pyridin-3-yl)-N-methyl-4-trifluoromethylbenzamide oxalate]"
8,147 to 148 °C,"COc1ccc(CN2CCN(C(=O)c3cc4cc(Oc5ccc(N(C)C(=O)c6ccc(OC(F)(F)F)cc6)cn5)ccc4n3C)CC2)cc1.O=C(O)/C=C\C(=O)O [Example 18, N-(6-{2-[4-(4-Methoxybenzyl)piperazine-1-carbonyl]-1-methyl-1H-indol-5-yloxy}pyridin-3-yl)-N-methyl-4-trifluoromethoxybenzamide maleate]"
9,161 to 163 °C,"Cn1c(C(=O)N2CCN(Cc3ccccn3)CC2)cc2cc(Oc3ncc(NC(=O)c4ccc(Cl)c(Cl)c4)cn3)ccc21 [Example 385, 3,4-Dichloro-N-{2-[1-methyl-2-(4-pyridin-2-ylmethylpiperazine-1-carbonyl)-1H-indol-5-yloxy]pyrimidin-5-yl}benzamide]"
10,249 to 252 °C,"Br.Cc1c(Oc2ccc(N(C)C(=O)c3ccc(C(F)(F)F)cc3)cn2)ccc2c1cc(C(=O)N1CCN(Cc3ccc(C#N)cc3)CC1)n2C [Example 425, N-(6-{2-[4-(4-Cyanobenzyl)piperazine-1-carbonyl]-1,4-dimethyl-1H-indol-5-yloxy}pyridin-3-yl)-N-methyl-4-trifluoromethylbenzamide hydrobromide]"
11,279 to 282 °C (dec.),"Br.Cn1c(C(=O)N2CCN(Cc3ccc(OC(F)(F)C(F)F)cc3)CC2)cc2ccc(Oc3ccc(NC(=O)c4ccc(C(F)(F)F)cc4)cn3)cc21 [Example 250, N-[6-(1-Methyl-2-{4-[4-(1,1,2,2-tetrafluoroethoxy)benzyl]-piperazine-1-carbonyl}-1H-indol-6-yloxy)pyridin-3-yl]-4-tri-fluoromethylbenzamide hydrobromide]"

# The next lines start with the molecule.
row,SMILES,melting point
1,"Br.Br.COc1ccc(CN2CCN(C(=O)c3cc4cc(Oc5ccc(NC(=O)c6ccc(C(F)(F)F)cn6)cn5)ccc4n3C)CC2)cc1 [Example 230, 5-Trifluoromethylpyridine-2-carboxylic acid (6-{2-[4-(4-methoxy-benzyl)piperazine-1-carbonyl]-1-methyl-1H-indol-5-yloxy}pyridin-3-yl)amide dihydrobromide]",241 to 243 °C
2,"Br.CN(C(=O)c1ccc(Cl)c(Cl)c1)c1ccc(Oc2ccc3cc(C(=O)N4CCN(Cc5ccc(OCC(F)F)cc5)CC4)n(C)c3c2)nc1 [Example 483, 3,4-Dichloro-N-[6-(2-{4-[4-(2,2-difluoroethoxy)benzyl]piperazine-1-carbonyl}-1-methyl-1H-indol-6-yloxy)pyridin-3-yl]-N-methyl-benzamide hydrobromide]",182.4 to 184.6 °C
3,"COc1ccc(CN2CCN(C(=O)c3cc4cc(Oc5ccc(N(C)C(=O)c6ccc(C(F)(F)F)cc6)cn5)ccc4n3C)CC2)nc1.O=C(O)/C=C\C(=O)O [Example 387, N-(6-{2-[4-(5-Methoxypyridin-2-ylmethyl)piperazine-1-carbonyl]-1-methyl-1H-indol-5-yloxy}pyridin-3-yl)-N-methyl-4-trifluoromethyl-benzamide maleate]",143 to 144 °C
4,"Cc1cc(Oc2ccc3cc(C(=O)N4CCN(Cc5ccc(OC(C)C)cc5)CC4)n(C)c3c2)ncc1N(C)S(=O)(=O)c1ccc(Cl)c(Cl)c1 [Example 313, 3,4-Dichloro-N-(6-{2-[4-(4-isopropoxybenzyl)piperazine-1-carbonyl]-1-methyl-1H-indol-6-yloxy}-4-methylpyridin-3-yl)-N-methylbenzenesulfonamide]",151 to 151.6 °C
5,"Br.CN(c1ccc(C(F)(F)F)cc1)c1ccc(Oc2ccc3c(c2)cc(C(=O)N2CCN(Cc4ccccc4)CC2)n3C)nc1 [Example 336, (4-Benzylpiperazin-1-yl)(1-methyl-5-{5-[methyl(4-trifluoromethyl-phenyl)amino]pyridin-2-yloxyl}-1H-indol-2-yl)methanone hydrobromide]",212 to 218 °C
6,"CC(C)Oc1ccc(CN2CCN(C(=O)c3cc4ccc(Oc5ccc(N(C)S(=O)(=O)c6ccc(Cl)c(Cl)c6)cn5)cc4n3C)CC2)cn1 [Example 517, 3,4-Dichloro-N-(6-{2-[4-(6-isopropoxypyridin-3-ylmethyl)-piperazine-1-carbonyl]-1-methyl-1H-indol-6-yloxy}pyridin-3-yl)-N-methylbenzenesulfonamide]",179.1 to 179.7 °C
7,Cc1cc(C)c(S(=O)(=O)Nc2ccc(Oc3ccc4cc(C(=O)N5CCN(Cc6ccc(OCC(F)(F)F)cc6)CC5)n(C)c4c3)nc2)c(C)c1.Cl,191.3 to 192.5 °C
8,"Br.CCCc1ccc(CN2CCN(C(=O)c3cc4ccc(Oc5ccc(NC(=O)c6ccc(C(F)(F)F)cc6)cn5)cc4n3C)CC2)cc1 [Example 478, N-(6-{1-Methyl-2-[4-(4-propylbenzyl)piperazine-1-carbonyl]-1H-indol-6-yloxy}pyridin-3-yl)-4-trifluoromethylbenzamide hydrobromide]",267 to 268.2 °C
